Assay results published in patent US12376589B2, “Chryseobacterium insect inhibitory microbial compositions and methods of making and using” (priority 2021, dated 2025).
≈ marks a conversion by molar mass, not a printed value. Entries after “also recorded” stand apart in the source; their conditions may differ. Like-named read-outs stand apart in the source and are kept apart here.

Key:
[1] = test system: Drosophila suzukii (spotted wing Drosophila); test: Drosophila suzukii diet incorporation assay; format: in vivo; settings: 100, 500, 1000 μg/mL
Description: During the development of embodiments of the technology described herein, experiments were conducted to assess the activity of 3,3′-diindolylmethane against Drosophila suzukii. […] A1X=100 μg/mL; A5X=500 μg/mL; A10X=1000 μg/mL. Each concentration was tested with 10 vials containing 20 D. suzukii L2 larvae. “Dpi” indicates days post infestation (0 dpi is the day of egg-laying).

[2] = test system: Culex quinquefasciatus larvae; test: whole plant or invertebrate; settings: read-out: LC50 (representative curve fit)
Text: Measuring potency of 3,3-diindolylmethane and 3-((1H-indol-2-yl)methyl)-1H-indole. 3,3′-Diindolylmethane (also called arundine, CAS number: 1968-05-4) was purchased from MILLIPORESIGMA (cat #74601) and Cayman Chemical (catalog #15927). 3-((1H-indol-2-yl)methyl)-1H-indole (CAS number: 114648-66-7) was purchased from Ambeed (catalog #A735658). Compounds were resuspended in dimethyl sulfoxide (DMSO). For collecting data to construct dose curves for 3,3-diindolylmethane and 3-((1H-indol-2-yl)methyl)-1H-indole, a series of twenty 1:2 dilutions was made to test in bioassays, establish a dose curve, and determine the LC50 value.
Culex quinquefasciatus bioassays with compounds. First or second instar Culex quinquefasciatus larvae were purchased from Benzon Research, Inc. (Carlisle, PA). Assays were performed with third instar larvae. Larvae were washed with sterile water before transfer to 24-well assay plates containing 1 mL of sterile water in each well. Each well contained 5 larvae. Compound dilutions were made in DMSO, topped with sterile NYSM broth and applied to each assay well. The final DMSO concentration was 1% in each assay well. Larvae mortality was scored for each well at 24-hour timepoints after application.

[3] = test system: Plutella xylostella (diamondback moth); test: Lepidopteran diet overlay bioassay
Description: (§1) Lepidopteran bioassays. Lepidopteran bioassays were performed at Benzon Research, Inc. (Carlisle, PA). 3,3′-Diindolylmethane samples were solubilized in dimethyl sulfoxide (DMSO). Samples were then frozen and shipped to Benzon. Samples were resuspended with 9× volumes of water before application to the assay well. The final DMSO concentration in the assay well was 2%. PLU6 extract samples were prepared as a series of three 1:5 dilutions in dimethyl sulfoxide. Samples were then further diluted with fresh NYSM broth, then shipped to Benzon Research for use in a diet overlay assay. Assays were performed using neonate larvae of 14 different Lepidopteran species (Anticarsia gemmatalis (velvetbean caterpillar), Diatraea grandiosella (southwestern corn borer), Diatraea saccharalis (sugarcane borer), Ostrinia nubilalis (European corn borer), Trichoplusia ni (cabbage looper), Chrysodeixis includens (soybean looper), Spodoptera exigua (beet armyworm), Spodoptera frugiperda (fall armyworm), Spodoptera eridania (southern armyworm), Chloridia virescens (tobacco budworm), Helicoverpa zea (corn earworm), Agrotis ipsilon (black cutworm), Cydia pomonella (codling moth), Plutella xylostella (diamondback moth) with an N=16 or N=32, apart from P. xylostella, for which third instar larvae were used. A diet-surface overlay format was used, in which 500 microliters of diet was placed in each well. One hundred microliters of sample was then pipetted into each well and allowed to dry. A DMSO control was included with each set of samples. An internal Btk (Bacillus thurengiensis kurstaki) standard at a concentration of 1000 ppm was used as a positive control, and water was used as a negative control.
(§2) Experiments were conducted in which mortality of lepidopteran larvae was measured after 7 days of diet overlay treatment with 3,3′-diindolylmethane at the concentrations indicated in Table 3. Mean mortalities and standard deviations were calculated from three independent experiments (each N=16). For each experiment, mortalities were corrected using Abbott's formula (Abbott (1987) “Method of computing the effectiveness of an insecticide” J. American Mosquito Control Association 2: 302-03, incorporated herein by reference). For all species except Plutella xylostella, neonates were used. For P. xylostella, third instar larvae were used. The positive control used was 1000 ppm of Bacillus thuringiensis kurstaki.

[4] = test system: Trichoplusia ni (cabbage looper); settings: for Mortality, Trichoplusia ni (cabbage looper): 7 days diet overlay, neonates, mean of three experiments (each N=16), Abbott's formula; for Mortalities (%) after 7 days of treatment (Abbott’s Correction), CL: Trichoplusia ni (cabbage looper)
Description: as §1, §2

[5] = test system: Heliothis virescens (tobacco budworm); test: whole plant or invertebrate
Description: as §1, §2

[6] = test system: Spodoptera frugiperda (fall armyworm); test: whole plant or invertebrate
Description: as §1, §2

[7] = Plutella xylostella, 168 h, read-out: Mortalities (%) after 7 days of treatment (Abbott’s Correction), DBM
[8] = Plutella xylostella, 168 h, read-out: Mortality, Plutella xylostella (diamondback moth)
[9] = Heliothis virescens, 168 h, read-out: Mortalities (%) after 7 days of treatment (Abbott’s Correction), TBW
[10] = Heliothis virescens, 168 h, read-out: Mortality, Heliothis virescens (tobacco budworm)
[11] = Spodoptera frugiperda, 168 h, read-out: Mortalities (%) after 7 days of treatment (Abbott’s Correction), FAW
[12] = Spodoptera frugiperda, 168 h, read-out: Mortality, Spodoptera frugiperda (fall armyworm)

c1ccc2c(Cc3c[nH]c4ccccc34)c[nH]c2c1 [3,3′-diindolylmethane, 3,3′-Diindolylmethane]
egg-to-adult survival [1]: not affected
insecticidal activity against spotted wing Drosophila [1]: did not display insecticidal activity
eclosion rate ([1]; L2 larvae, one-way ANOVA): not affected
pupation rate ([1]; L2 larvae, one-way ANOVA): not affected
LC50 [2]: 7.5 µg/mL (≈ 30.4 µM)
mortality at 156.25 µg/mL [3, 7]: 19.4%
mortality at 625 µg/mL [3, 7]: 6.5%
mortality at 2500 µg/mL [3, 7]: 19.4%
mortality at 9.77 µg/mL [3, 8]: 1.01%
mortality at 39.06 µg/mL [3, 8]: 1.07%
mortality at 156.25 µg/mL [3, 8]: 7.39%
mortality at 625 µg/mL [3, 8]: 15.7%
mortality at 2500 µg/mL [3, 8]: 43.4%
activity against P. xylostella ([3]; diet overlay): low or not observed
Mortality, Trichoplusia ni (cabbage looper) ([4]; 39.06 μg/mL): 3.00%
Mortality, Trichoplusia ni (cabbage looper) ([4]; 156.25 μg/mL): 22.95%
Mortalities (%) after 7 days of treatment (Abbott’s Correction), CL ([4]; 156.25 μg/mL, diet overlay): 41.4%
Mortality, Trichoplusia ni (cabbage looper) ([4]; 625 μg/mL): 44.60%
Mortalities (%) after 7 days of treatment (Abbott’s Correction), CL ([4]; 625 μg/mL, diet overlay): 72.4%
Mortality, Trichoplusia ni (cabbage looper) ([4]; 2500 μg/mL): 93.25%
Mortalities (%) after 7 days of treatment (Abbott’s Correction), CL ([4]; 2500 μg/mL, diet overlay): 93.1%
activity against Trichoplusia ni ([4]; diet overlay): active; also recorded: dose-dependent activity
mortality at 156.25 µg/mL [5, 9]: 74.2%
mortality at 625 µg/mL [5, 9]: 74.2%
mortality at 2500 µg/mL [5, 9]: 87.1%
mortality at 9.77 µg/mL [5, 10]: 3.16%
mortality at 39.06 µg/mL [5, 10]: 40.9%
mortality at 156.25 µg/mL [5, 10]: 85.2%
mortality at 625 µg/mL [5, 10]: 93.8%
mortality at 2500 µg/mL [5, 10]: 83.3%
activity against tobacco budworm ([5]; diet overlay): active; also recorded: dose-dependent activity
mortality at 156.25 µg/mL [6, 11]: 40%
mortality at 625 µg/mL [6, 11]: 63.3%
mortality at 2500 µg/mL [6, 11]: 96.7%
mortality at 9.77 µg/mL [6, 12]: 4.1%
mortality at 39.06 µg/mL [6, 12]: 2.15%
mortality at 156.25 µg/mL [6, 12]: 79%
mortality at 625 µg/mL [6, 12]: 85.1%
mortality at 2500 µg/mL [6, 12]: 95.7%
activity against Spodoptera frugiperda ([6]; diet overlay): active; also recorded: dose-dependent activity
